These results are taken from patent publication US20110117168A1, “METHODS AND COMPOSITIONS FOR SOFT TISSUE REPAIR” (AFFINERGY, INC., priority 2009, published 2011).

Ends that are not written are not given here.

One assay concerns dermal fibroblasts. Nature of the assay: Biotinylated peptide cell binding specificity by flow cytometry (Neutravidin-PE). Format: cell-based, human. Particulars: 25 μM peptide solution, 30 min at 4° C. From the text:
The synthetic biotinylated cell binding peptide SEQ ID NO: 4 was examined for its ability to specifically bind MSCs compared to a number of other cells types including adipose-derived mesenchymal stem cells (ASCs), dermal fibroblasts, rodent MSCs, red blood cells, monocytes, lymphocytes and granulocytes. The cell binding peptide was biotinylated as described herein at Example 2. Cultured cells of each type were either purchased (ASCs and dermal fibroblasts) or isolated from rodent bone marrow (rodent MSCs) or human blood. Cells were first harvested and resuspended at 10^6/mL in PBS+2% fetal bovine serum (FBS). An aliquot of cells (50 μL) was incubated in 50 μL of peptide solution (25 μM in PBS+FBS) for 30 min at 4° C. Cells were then washed twice in PBS+FBS with 300×g centrifugation for 5 min between washes. Fluorescently-tagged neutravidin (Neutravidin-PE from INVITROGEN) was then added to the cells to label biotinylated peptide bound to cells. Neutravidin-PE was diluted 1:250 from stock and applied at 50 μL to cells. Cells were then washed in PBS+FBS, and acquired on a BD […]. Peptide reactivity was then measured as percent positivity relative to Neutravidin-PE staining without the addition of biotinylated peptide.

For the next assay, the system named is HUVECs. Nature of the assay: Biotinylated peptide binding to endothelial and other cells by flow cytometry. Format: cell-based, human. Particulars: biotinylated peptide 10 μM, 30 min at 4° C. On the procedure: (§1) The synthetic biotinylated binding peptide SEQ ID NO: 4 was further examined for its ability to bind endothelial cells compared to other cell types (see FIG. 16). […] ECFCs are clonally expanded cells isolated from human umbilical cord blood, and are considered highly proliferative endothelial progenitor cells (EPCs) based on their clonogenic and proliferative potential. In another experiment, binding peptide SEQ ID NO: 4 was assayed for its ability to selectively isolate endothelial cells versus smooth muscle cells in the presence of whole blood. HUVECs or UASMCs were incubated in the presence of medium containing 20% whole blood and binding peptide SEQ ID NO: 4-conjugated magnetic beads (via biotin-SA) for 30 min. The solutions containing the bead-peptide-cell complexes were then passed through a […] LS column in a magnetic field. The column was washed, and the remaining peptide-bound cells were then released from the magnetic field and counted.

The test system of the next assay is peripheral blood cells. Described as above. Format: cell-based, human. Particulars: biotinylated peptide 10 μM, 30 min at 4° C. As for the experimental part:
as §1

The next assay has as its system ECFCs. The description is as above. Particulars: biotinylated peptide 10 μM, 30 min at 4° C. Format: cell-based, human. On the procedure: as §1
The subject of another assay is UASMCs. The assay is described as above. Format: cell-based. Particulars: biotinylated peptide 10 μM, 30 min at 4° C. On the procedure: as §1
For the next assay, the system named is human MSCs. The assay is described as follows: Capture of cultured MSCs with peptide on […] Streptavidin microbeads in LS columns. Format: cell-based. The following applies: 160,000 cultured human MSCs, peptide 20 μM on Streptavidin microbeads, LS column. On the procedure:
In this experiment the ability of the biotinylated cell binding peptide SEQ ID NO: 4 to capture human MSCs from a homogeneous cultured cell population was examined. The cell binding peptide SEQ ID NO: 4 was biotinylated as described herein at Example 2. The cell binding peptide SEQ ID NO: 4, and a non-binding control peptide, were added to separate 300 μl volumes of […] BIOTEC Streptavidin microbeads at a concentration of 20 μM. These beads are made from iron filings, coated with a dextran coating which is functionalized with streptavidin moieties. Peptide was incubated with beads for 45 min on ice. The 300 μl of peptide coated microbeads were added to pre-equilibrated LS columns outside of the magnetic field to evenly distribute the magnetic beads throughout the columns. Columns were then placed into a magnetic field, and excess peptide was washed away with buffer while retaining the peptide coated microbeads. Cultured and expanded human MSCs from bone marrow aspirate (160,000 cells; LONZA) were added to each LS column and allowed to pass through by gravity flow. Flowthrough was collected and cycled through the columns 5 times, after which the columns were washed with 5 ml buffer. […] The collected flowthrough with 5 ml wash and eluted cells were spun down, resuspended in a smaller volume, and counted by hemacytometer (see FIG. 17). […]

A further assay deals with MSCs. Nature of the assay: Chondrocyte differentiation of peptide-captured MSCs (aggrecan immunostaining). Format: cell-based, human. Particulars: 24 days in CHONDRODIFF medium. On the procedure:
Chondrocyte differentiation. To examine chondrocyte differentiation, the MSCs present in the […] column eluants (see Example 6) were pelleted by centrifugation at 150×g for 5 minutes. Cells were washed once with 1 ml MACS NH CHONDRODIFF Medium without disturbing the pellet. Cells were spun again and 1 mL CHONDRODIFF Medium was added to each pellet. Every third day, medium was aspirated and replaced with fresh pre-warmed medium. After 24 days in culture, cells exposed to CHONDRODIFF medium formed cartilage plugs or nodules, whereas control cells formed only loose or small nodules. Cells were washed once with PBS and fixed in neutral buffered formalin overnight. Sections were embedded in paraffin and sectioned at 5 microns. Sections were examined by hemotoxylin and eosin staining (data not shown). Sections were further examined by immunostaining for aggrecan, a major structural component of cartilage. In FIG. 27, sections from the periphery (panels A and B) or center (panels C and D) were incubated with an antibody against aggrecan (ABCAM) (panels B and D) or with secondary detection reagents only as a control (panels A and C), then counterstained with DAPI to reveal cell nuclei. […] Control images of captured cells grown in the absence of differentiation medium could not be taken due to the small and loose nature of nodules.

As to “SSFWDVCQGDGTCYGGGSR (SSFWDVCQGDGTCYGGGSRGSSG-{K(biotin)}; cysteine pairing not given here) [SEQ ID NO: 4, tested biotinylated with GSSGK(biotin) or other spacer at the C-terminus]”, in the assay on dermal fibroblasts, the “binding to dermal fibroblasts (percent positivity relative to Neutravidin-PE staining)” value is “high binding”. The “cross-reactivity with HUVECs” value with HUVECs is on record as “strongly”. Besides, the “cross-reactivity with peripheral blood cells” value in the assay with peripheral blood cells is recorded as “no cross-reactivity”. Besides, the “cross-reactivity with ECFCs” value in the assay with ECFCs is reported as “strongly”. Besides, in the assay with UASMCs, the “cross-reactivity with UASMCs” value is given as “weakly”. In addition, the “capture of MSCs” value in the assay on human MSCs is “approximately 70%”. The “chondrocyte differentiation of captured MSCs (aggrecan)” value with MSCs was “aggrecan could be detected”.
